From ChEMBL document CHEMBL1157124, “Synthesis and anticancer evaluation of alpha-lipoic acid derivatives” (Bioorg Med Chem Lett, 2010)
Calls of active or inactive are those of the source. The rule behind the calls is not given here.

Columns and labels:
Type in all cases: functional
PC-3 [1] = experiment: Cytotoxicity against human PC3 cells assessed as growth inhibition at 0.1 ug/ml after 24 hrs by MTT assay; conditions: for inhibition of growth at 0.1 µg/mL: PC-3, 24 h, read-out: GI
Bel-7402 [2] = experiment: Cytotoxicity against human Bel7402 cells assessed as growth inhibition at 0.1 ug/ml after 24 hrs by MTT assay; conditions: Bel-7402, 24 h, read-out: GI
NCI-H460 [3] = experiment: Cytotoxicity against human NCI-H460 cells assessed as growth inhibition at 100 ug/ml after 24 hrs by MTT assay; conditions: NCI-H460, 24 h, read-out: GI
Bel-7402 [4] = experiment: Cytotoxicity against human Bel7402 cells assessed as growth inhibition at 10 ug/ml after 24 hrs by MTT assay; conditions: Bel-7402, 24 h, read-out: GI
PC-3 [5] = experiment: Cytotoxicity against human PC3 cells assessed as growth inhibition at 1 ug/ml after 24 hrs by MTT assay; conditions: for inhibition of growth at 1 µg/mL: PC-3, 24 h, read-out: GI
[6] = Cytotoxicity against human HO8910 cells assessed as growth inhibition at 1 ug/ml after 24 hrs by MTT assay; conditions: HO-8910, 24 h, read-out: GI
KB [7] = experiment: Cytotoxicity against human KB cells assessed as growth inhibition at 10 ug/ml after 24 hrs by MTT assay; conditions: read-out: GI
PC-3 [8] = experiment: Cytotoxicity against human PC3 cells assessed as growth inhibition at 10 ug/ml after 24 hrs by MTT assay; conditions: for inhibition of growth at 10 µg/mL: PC-3, 24 h, read-out: GI
KB [9] = experiment: Cytotoxicity against human KB cells assessed as growth inhibition at 100 ug/ml after 24 hrs by MTT assay; conditions: read-out: GI
KB [10] = experiment: Cytotoxicity against human KB cells assessed as growth inhibition at 1 ug/ml after 24 hrs by MTT assay; conditions: read-out: GI
Bel-7402 [11] = experiment: Cytotoxicity against human Bel7402 cells assessed as growth inhibition at 100 ug/ml after 24 hrs by MTT assay; conditions: Bel-7402, 24 h, read-out: GI
NCI-H460 [12] = experiment: Cytotoxicity against human NCI-H460 cells assessed as growth inhibition at 1 ug/ml after 24 hrs by MTT assay; conditions: NCI-H460, 24 h, read-out: GI
[13] = Cytotoxicity against human HO8910 cells assessed as growth inhibition at 100 ug/ml after 24 hrs by MTT assay; conditions: HO-8910, 24 h, read-out: GI
PC-3 [14] = experiment: Cytotoxicity against human PC3 cells assessed as growth inhibition at 100 ug/ml after 24 hrs by MTT assay; conditions: PC-3, 24 h, read-out: GI
Bel-7402 [15] = experiment: Cytotoxicity against human Bel7402 cells assessed as growth inhibition at 1 ug/ml after 24 hrs by MTT assay; conditions: Bel-7402, 24 h, read-out: GI
KB [16] = experiment: Cytotoxicity against human KB cells assessed as growth inhibition at 0.1 ug/ml after 24 hrs by MTT assay; conditions: read-out: GI
[17] = Cytotoxicity against human HO8910 cells assessed as growth inhibition at 10 ug/ml after 24 hrs by MTT assay; conditions: HO-8910, 24 h, read-out: GI
NCI-H460 [18] = experiment: Cytotoxicity against human NCI-H460 cells assessed as growth inhibition at 0.1 ug/ml after 24 hrs by MTT assay; conditions: NCI-H460, 24 h, read-out: GI
[19] = Cytotoxicity against human HO8910 cells assessed as growth inhibition at 0.1 ug/ml after 24 hrs by MTT assay; conditions: HO-8910, 24 h, read-out: GI
NCI-H460 [20] = experiment: Cytotoxicity against human NCI-H460 cells assessed as growth inhibition at 10 ug/ml after 24 hrs by MTT assay; conditions: NCI-H460, 24 h, read-out: GI

Compound: O=C(O)CCCCC(CCSC(=O)c1ccccc1)SC(=O)c1ccccc1 (centres undefined)
- inhibition of growth at 0.1 µg/mL (PC-3 [1]): 9.54%
- inhibition of growth at 0.1 µg/mL (Bel-7402 [2]): 1.09%
- inhibition of growth at 100 µg/mL (NCI-H460 [3]): 72.8%
- inhibition of growth at 10 µg/mL (Bel-7402 [4]): 2.76%
- inhibition of growth at 1 µg/mL (PC-3 [5]): 9.86%
- inhibition of growth at 1 µg/mL [6]: 0.29%
- inhibition of growth at 10 µg/mL (KB [7]): 2.68%
- inhibition of growth at 10 µg/mL (PC-3 [8]): 7.43%
- inhibition of growth at 100 µg/mL (KB [9]): 89.8%
- inhibition of growth at 1 µg/mL (KB [10]): 0.68%
- inhibition of growth at 100 µg/mL (Bel-7402 [11]): 81%
- inhibition of growth at 1 µg/mL (NCI-H460 [12]): 0.77%
- inhibition of growth at 100 µg/mL [13]: 86.7%
- inhibition of growth at 100 µg/mL (PC-3 [14]): 91.2%

Compound: O=C(CCCCC(S)CCS)Nc1ccccc1 (centres undefined)
- inhibition of growth at 1 µg/mL (Bel-7402 [15]): 1.32%
- inhibition of growth at 0.1 µg/mL (Bel-7402 [2]): 0.85%
- inhibition of growth at 0.1 µg/mL (KB [16]): 9.49%
- inhibition of growth at 100 µg/mL (NCI-H460 [3]): 25.4%
- inhibition of growth at 10 µg/mL [17]: 5.49%
- inhibition of growth at 10 µg/mL (Bel-7402 [4]): 3.72%
- inhibition of growth at 0.1 µg/mL (NCI-H460 [18]): 5.5%
- inhibition of growth at 1 µg/mL [6]: 6.38%
- inhibition of growth at 0.1 µg/mL [19]: 7.37%
- inhibition of growth at 10 µg/mL (KB [7]): 8.62%
- inhibition of growth at 100 µg/mL (KB [9]): 15.8%
- inhibition of growth at 10 µg/mL (NCI-H460 [20]): 8.37%
- inhibition of growth at 1 µg/mL (KB [10]): 11.6%
- inhibition of growth at 100 µg/mL (Bel-7402 [11]): 7.67%
- inhibition of growth at 1 µg/mL (NCI-H460 [12]): 4.3%
- inhibition of growth at 100 µg/mL [13]: 13.7%

Compound: Cc1cccc(NC(=O)CCCCC2CCSS2)c1 (centres undefined)
- inhibition of growth at 0.1 µg/mL (PC-3 [1]): 2.13%
- inhibition of growth at 1 µg/mL (Bel-7402 [15]): 10.3%
- inhibition of growth at 0.1 µg/mL (Bel-7402 [2]): 9.88%
- inhibition of growth at 0.1 µg/mL (KB [16]): 4.29%
- inhibition of growth at 100 µg/mL (NCI-H460 [3]): 52.9%
- inhibition of growth at 10 µg/mL (Bel-7402 [4]): 9.01%
- inhibition of growth at 1 µg/mL (PC-3 [5]): 9.98%
- inhibition of growth at 0.1 µg/mL (NCI-H460 [18]): 7.97%
- inhibition of growth at 1 µg/mL [6]: 4.54%
- inhibition of growth at 0.1 µg/mL [19]: 3.68%
- inhibition of growth at 10 µg/mL (KB [7]): 4.13%
- inhibition of growth at 10 µg/mL (PC-3 [8]): 9.57%
- inhibition of growth at 100 µg/mL (KB [9]): 68%
- inhibition of growth at 10 µg/mL (NCI-H460 [20]): 4.15%
- inhibition of growth at 1 µg/mL (KB [10]): 5.2%
- inhibition of growth at 100 µg/mL (Bel-7402 [11]): 49.9%
- inhibition of growth at 1 µg/mL (NCI-H460 [12]): 7.82%
- inhibition of growth at 100 µg/mL [13]: 62.7%
- inhibition of growth at 100 µg/mL (PC-3 [14]): 75.1%

Compound: O=C(CCCC[C@@H]1CCSS1)Nc1ccc([N+](=O)[O-])c(C(F)(F)F)c1
- growth inhibition (GI) (PC-3 [1]): inactive
- inhibition of growth at 100 µg/mL (NCI-H460 [3]): 35.4%
- growth inhibition (GI) (PC-3 [5]): inactive
- growth inhibition (GI) (PC-3 [8]): inactive
- inhibition of growth at 100 µg/mL (KB [9]): 49.1%
- inhibition of growth at 100 µg/mL (Bel-7402 [11]): 43.4%
- inhibition of growth at 100 µg/mL [13]: 39.2%
- inhibition of growth at 100 µg/mL (PC-3 [14]): 59%

Compound: O=C(CCCCC(S)CCS)Nc1ccc([N+](=O)[O-])c(C(F)(F)F)c1 (centres undefined)
- inhibition of growth at 0.1 µg/mL (PC-3 [1]): 8.06%
- inhibition of growth at 1 µg/mL (Bel-7402 [15]): 0.68%
- inhibition of growth at 0.1 µg/mL (Bel-7402 [2]): 6.54%
- inhibition of growth at 100 µg/mL (NCI-H460 [3]): 95.8%
- inhibition of growth at 1 µg/mL (PC-3 [5]): 1.08%
- inhibition of growth at 0.1 µg/mL (NCI-H460 [18]): 3.2%
- inhibition of growth at 1 µg/mL [6]: 1.17%
- inhibition of growth at 0.1 µg/mL [19]: 1.95%
- inhibition of growth at 10 µg/mL (KB [7]): 4.04%
- inhibition of growth at 10 µg/mL (PC-3 [8]): 45.5%
- inhibition of growth at 100 µg/mL (KB [9]): 95.5%
- inhibition of growth at 10 µg/mL (NCI-H460 [20]): 0.97%
- inhibition of growth at 1 µg/mL (KB [10]): 10.2%
- inhibition of growth at 100 µg/mL (Bel-7402 [11]): 91.7%
- inhibition of growth at 1 µg/mL (NCI-H460 [12]): 6.29%
- inhibition of growth at 100 µg/mL [13]: 92.7%
- inhibition of growth at 100 µg/mL (PC-3 [14]): 79.9%

Compound: O=C(CCCCC(S)CCS)Nc1ccc(F)cc1 (centres undefined)
- inhibition of growth at 0.1 µg/mL (KB [16]): 6.78%
- inhibition of growth at 100 µg/mL (NCI-H460 [3]): 41.6%
- inhibition of growth at 10 µg/mL [17]: 6.81%
- inhibition of growth at 10 µg/mL (Bel-7402 [4]): 6.14%
- inhibition of growth at 0.1 µg/mL (NCI-H460 [18]): 5.64%
- inhibition of growth at 1 µg/mL [6]: 12.2%
- inhibition of growth at 0.1 µg/mL [19]: 8.11%
- inhibition of growth at 10 µg/mL (KB [7]): 13.3%
- inhibition of growth at 100 µg/mL (KB [9]): 28.2%
- inhibition of growth at 10 µg/mL (NCI-H460 [20]): 18.1%
- inhibition of growth at 1 µg/mL (KB [10]): 8.84%
- inhibition of growth at 100 µg/mL (Bel-7402 [11]): 11.7%
- inhibition of growth at 1 µg/mL (NCI-H460 [12]): 6.84%
- inhibition of growth at 100 µg/mL [13]: 22.2%

Compound: COc1ccc(NC(=O)CCCCC2CCSS2)cc1 (centres undefined)
- inhibition of growth at 1 µg/mL (Bel-7402 [15]): 7.93%
- inhibition of growth at 0.1 µg/mL (Bel-7402 [2]): 5.48%
- inhibition of growth at 0.1 µg/mL (KB [16]): 4%
- inhibition of growth at 100 µg/mL (NCI-H460 [3]): 45.7%
- inhibition of growth at 10 µg/mL [17]: 6.34%
- inhibition of growth at 10 µg/mL (Bel-7402 [4]): 6.32%
- inhibition of growth at 0.1 µg/mL (NCI-H460 [18]): 3.82%
- inhibition of growth at 1 µg/mL [6]: 3.54%
- inhibition of growth at 0.1 µg/mL [19]: 1.64%
- inhibition of growth at 10 µg/mL (KB [7]): 2.94%
- inhibition of growth at 100 µg/mL (KB [9]): 48.3%
- inhibition of growth at 10 µg/mL (NCI-H460 [20]): 9.82%
- inhibition of growth at 1 µg/mL (KB [10]): 5.03%
- inhibition of growth at 100 µg/mL (Bel-7402 [11]): 38.7%
- inhibition of growth at 1 µg/mL (NCI-H460 [12]): 0.51%
- inhibition of growth at 100 µg/mL [13]: 43.8%
